# ChEMBL document CHEMBL3885881, “DrugMatrix”
# Species: Rattus norvegicus
# Assay: DrugMatrix - Regimen: Daily Repeat
# Format: toxicity, organism-based, Sprague-Dawley
# Design: regimen Daily Repeat, gender Male, age 6-8 weeks
# Details: in vivo, po, route oral GAVAGE, vehicle 100 % SALINE; for ABSOLUTE BASOPHIL / ABSOLUTE EOSINOPHIL / ABSOLUTE LYMPHOCYTE / ABSOLUTE MONOCYTE / ABSOLUTE SEGMENTED NEUTROPHIL / BASOPHIL / EOSINOPHIL / ERYTHROCYTE COUNT / HEMATOCRIT / HEMOGLOBIN / LEUKOCYTE COUNT / LYMPHOCYTE / MEAN CORPUSCULAR HEMOGLOBIN / MEAN CORPUSCULAR HEMOGLOBIN CONCENTRATION / MEAN CORPUSCULAR VOLUME / MONOCYTE / NEUTROPHIL / NUCLEATED RED BLOOD CELLS / PLATELET COUNT: tissue Blood; for ALANINE AMINOTRANSFERASE / ALBUMIN / ALKALINE PHOSPHATASE / ASPARTATE AMINOTRANSFERASE / BLOOD UREA NITROGEN / CARBON DIOXIDE / CHLORIDE / CHOLESTEROL / CREATINE PHOSPHOKINASE / CREATININE / GLUCOSE / LACTATE DEHYDROGENASE / LIPASE / PHOSPHORUS / POTASSIUM / SODIUM / TOTAL BILIRUBIN / TOTAL PROTEIN / URIC ACID: tissue Plasma
# [1] = 59 mg/kg, 120 h, dose level Low, time 5 day
# [2] = 400 mg/kg, 72 h, dose level High, time 3 day
# [3] = 400 mg/kg, 120 h, dose level High, time 5 day
compound,measurement,setting,value
NC(=O)NO [HYDROXYUREA],ABSOLUTE BASOPHIL,[1],0 CELLS/uL
same,ABSOLUTE EOSINOPHIL,[1],40 CELLS/uL
same,ABSOLUTE LYMPHOCYTE,[1],7014.67 CELLS/uL
same,ABSOLUTE MONOCYTE,[1],87.67 CELLS/uL
same,ABSOLUTE SEGMENTED NEUTROPHIL,[1],557.67 CELLS/uL
same,BASOPHIL,[1],0%
same,EOSINOPHIL,[1],0.67%
same,ERYTHROCYTE COUNT,[1],5.35 x10E6/uL
same,HEMATOCRIT,[1],34.53%
same,HEMOGLOBIN,[1],13.4 G/DL
same,LEUKOCYTE COUNT,[1],7.7 x10E3/uL
same,LYMPHOCYTE,[1],90.67%
same,MEAN CORPUSCULAR HEMOGLOBIN,[1],25.1 pg
same,MEAN CORPUSCULAR HEMOGLOBIN CONCENTRATION,[1],38.83 G/DL
same,MEAN CORPUSCULAR VOLUME,[1],64.63 fL
same,MONOCYTE,[1],1%
same,NEUTROPHIL,[1],7.67%
same,NUCLEATED RED BLOOD CELLS,[1],0 /100WBC
same,PLATELET COUNT,[1],1286 x10E3/uL
same,ALANINE AMINOTRANSFERASE,[1],54 u/L
same,ALBUMIN,[1],4.1 G/DL
same,ALKALINE PHOSPHATASE,[1],381.33 u/L
same,ASPARTATE AMINOTRANSFERASE,[1],80.33 u/L
same,BLOOD UREA NITROGEN,[1],12.33 mg/dL
same,CARBON DIOXIDE,[1],29.67 mmol/L
same,CHLORIDE,[1],98 MEQ/L
same,CHOLESTEROL,[1],64 mg/dL
same,CREATINE PHOSPHOKINASE,[1],314.67 u/L
same,CREATININE,[1],0.22 mg/dL
same,GLUCOSE,[1],169.33 mg/dL
same,LACTATE DEHYDROGENASE,[1],90.33 u/L
same,LIPASE,[1],10.67 u/L
same,PHOSPHORUS,[1],10.9 mg/dL
same,POTASSIUM,[1],5.6 MEQ/L
same,SODIUM,[1],143.13 MEQ/L
same,TOTAL BILIRUBIN,[1],0.17 mg/dL
same,TOTAL PROTEIN,[1],6.1 G/DL
same,URIC ACID,[1],0.8 mg/dL
same,ABSOLUTE BASOPHIL,[2],0 CELLS/uL
same,ABSOLUTE EOSINOPHIL,[2],0 CELLS/uL
same,ABSOLUTE LYMPHOCYTE,[2],4351 CELLS/uL
same,ABSOLUTE MONOCYTE,[2],16 CELLS/uL
same,ABSOLUTE SEGMENTED NEUTROPHIL,[2],133 CELLS/uL
same,BASOPHIL,[2],0%
same,EOSINOPHIL,[2],0%
same,ERYTHROCYTE COUNT,[2],4.56 x10E6/uL
same,HEMATOCRIT,[2],29.63%
same,HEMOGLOBIN,[2],11.37 G/DL
same,LEUKOCYTE COUNT,[2],4.5 x10E3/uL
same,LYMPHOCYTE,[2],96.67%
same,MEAN CORPUSCULAR HEMOGLOBIN,[2],24.93 pg
same,MEAN CORPUSCULAR HEMOGLOBIN CONCENTRATION,[2],38.43 G/DL
same,MEAN CORPUSCULAR VOLUME,[2],64.87 fL
same,MONOCYTE,[2],0.33%
same,NEUTROPHIL,[2],3%
same,NUCLEATED RED BLOOD CELLS,[2],0 /100WBC
same,PLATELET COUNT,[2],1033 x10E3/uL
same,ALANINE AMINOTRANSFERASE,[2],39.67 u/L
same,ALBUMIN,[2],3.97 G/DL
same,ALKALINE PHOSPHATASE,[2],323.33 u/L
same,ASPARTATE AMINOTRANSFERASE,[2],76 u/L
same,BLOOD UREA NITROGEN,[2],10 mg/dL
same,CARBON DIOXIDE,[2],30.33 mmol/L
same,CHLORIDE,[2],100.67 MEQ/L
same,CHOLESTEROL,[2],77.33 mg/dL
same,CREATINE PHOSPHOKINASE,[2],221.33 u/L
same,CREATININE,[2],0.2 mg/dL
same,GLUCOSE,[2],154.67 mg/dL
same,LACTATE DEHYDROGENASE,[2],79 u/L
same,LIPASE,[2],9 u/L
same,PHOSPHORUS,[2],10.53 mg/dL
same,POTASSIUM,[2],5.6 MEQ/L
same,SODIUM,[2],144.93 MEQ/L
same,TOTAL BILIRUBIN,[2],0.1 mg/dL
same,TOTAL PROTEIN,[2],5.93 G/DL
same,URIC ACID,[2],0.53 mg/dL
same,ABSOLUTE BASOPHIL,[3],0 CELLS/uL
same,ABSOLUTE EOSINOPHIL,[3],0 CELLS/uL
same,ABSOLUTE LYMPHOCYTE,[3],4141 CELLS/uL
same,ABSOLUTE MONOCYTE,[3],8.33 CELLS/uL
same,ABSOLUTE SEGMENTED NEUTROPHIL,[3],117.33 CELLS/uL
same,BASOPHIL,[3],0%
same,EOSINOPHIL,[3],0%
same,ERYTHROCYTE COUNT,[3],4.75 x10E6/uL
same,HEMATOCRIT,[3],30.23%
same,HEMOGLOBIN,[3],11.9 G/DL
same,LEUKOCYTE COUNT,[3],4.27 x10E3/uL
same,LYMPHOCYTE,[3],97%
same,MEAN CORPUSCULAR HEMOGLOBIN,[3],25.03 pg
same,MEAN CORPUSCULAR HEMOGLOBIN CONCENTRATION,[3],39.37 G/DL
same,MEAN CORPUSCULAR VOLUME,[3],63.63 fL
same,MONOCYTE,[3],0.33%
same,NEUTROPHIL,[3],2.67%
same,NUCLEATED RED BLOOD CELLS,[3],0 /100WBC
same,PLATELET COUNT,[3],955 x10E3/uL
same,ALANINE AMINOTRANSFERASE,[3],47 u/L
same,ALBUMIN,[3],3.97 G/DL
same,ALKALINE PHOSPHATASE,[3],216.67 u/L
same,ASPARTATE AMINOTRANSFERASE,[3],84.67 u/L
same,BLOOD UREA NITROGEN,[3],11.33 mg/dL
same,CARBON DIOXIDE,[3],28.67 mmol/L
same,CHLORIDE,[3],100.67 MEQ/L
same,CHOLESTEROL,[3],82 mg/dL
same,CREATINE PHOSPHOKINASE,[3],362.67 u/L
same,CREATININE,[3],0.1 mg/dL
same,GLUCOSE,[3],158.67 mg/dL
same,LACTATE DEHYDROGENASE,[3],74 u/L
same,LIPASE,[3],8.67 u/L
same,PHOSPHORUS,[3],10.1 mg/dL
same,POTASSIUM,[3],5.3 MEQ/L
same,SODIUM,[3],144.07 MEQ/L
same,TOTAL BILIRUBIN,[3],0.1 mg/dL
same,TOTAL PROTEIN,[3],5.87 G/DL
same,URIC ACID,[3],0.47 mg/dL
